# Source: patent publication US7196074B2, “Methods of making, using and pharmaceutical formulations comprising 7α, 11β-dimethyl-17β-hydroxyestra-4, 14-dien-3-one and 17 esters thereof” (The United States of America as represented by the …, priority 2000, dated 2007)
# Experiments:
# Type in all cases: in vivo, Sprague-Dawley rats
# [1] = tested on: ventral prostate weight; assay: Oral androgenic potency, ventral prostate weight assay in orchidectomized immature rats (gavage daily for seven days); settings: for oral activity relative to methyltestosterone (potency ratio): oral administration, summary statement, standard methyltestosterone; for oral androgenic activity, times as potent as methyltestosterone: gavage daily for 7 days in 10% ethanol/sesame oil (oily carrier), ventral prostate weight
# Method: (§1) Immature (about 21-day-old) Sprague-Dawley rats were orchidectomized under anesthesia, and randomly assignee to groups of ten animals for each dose level of the active undergoing testing. Each active was dissolved in 10% ethanol/sesame oil and administered by gavage (oral) each day for seven days beginning on the date of the orchidectomy. The animals were sacrificed 24 hours after the last dose, and the ventral prostate and seminal vesicles were excised, cleaned of fat and connective tissue, blotted on moist filter paper and weighed to the nearest 0.1 mg. See, e.g., Hershberger, L. et al, Myotrophic Activity of 19-nortestosterone And Other Steroids Determined By Modified Levator And Muscle Method, Proc. Soc. Exptl. Biol. Med 83 175–180 (1953). Regression analysis was performed by conventional methods using a PROPHET data management system. See, e.g., Bliss, C., The Statistics of Bioassay (Academic Press, New York, 1952); Hollister, C., Nucleic Acids Res. 16 1873–75 (1988). Ventral prostate weight was used as the endpoint because it is the sensitive organ to androgenic stimulation.
# as §1, with “(oral) or subcutaneous injection” for “(oral)”, “mg.” for “mg. See, e.g., Hershberger, L. et al, Myotrophic Activity of 19-nortestosterone And Other Steroids Determined By Modified Levator And Muscle Method, Proc. Soc. Exptl. Biol. Med 83 175–180 (1953).”, “system.” for “system. See, e.g., Bliss, C., The Statistics of Bioassay (Academic Press, New York, 1952); Hollister, C., Nucleic Acids Res. 16 1873–75 (1988).”
# Immature (about 21-day-old) Sprague-Dawley rats were orchidectomized under anesthesia, and randomly assignee to groups of ten animals for each dose level of the active undergoing testing. Four dosage forms were prepared. The first two forms constituted a solution of each active in 10% ethanol/sesame oil. The third and fourth dosage forms constituted a suspension of each active in an aqueous carrier (as described in Example 2, supra). These dosage forms were then administered by gavage (oral) to separate animal groups each day for seven days beginning on the date of the orchidectomy. Each carrier was also administered (alone) to separate groups of animals as a control. The animals were sacrificed 24 hours after the last dose, and the ventral prostate and seminal vesicles were excised, cleaned of fat and connective tissue, blotted on moist filter paper and weighed to the nearest 0.1 mg. See, e.g., Hershberger, L. et al, Myotrophic Activity of 19-nortestosterone And Other Steroids Determined By Modified Levator And Muscle Method, Proc. Soc. Exptl. Biol. Med. 83 175–180 (1953). Regression analysis was performed by conventional methods using a PROPHET data management system. See, e.g., Bliss, C., The Statistics of Bioassay (Academic Press, New York, 1952); Hollister, C., Nucleic Acids Res. 16 1873–75 (1988). Ventral prostate weight was used as the endpoint because it is the sensitive organ to androgenic stimulation.
# Immature (about 21 day old) Sprague male rats were orchidectomized under anesthesia, and randomly assignee to groups often animals for each dose level of the active undergoing testing. Animals were maintained under standard conditions of housing and had free access to food and water. Illumination was controlled for 14 hour periods of light and 10 hours of darkness. Each active was dissolved in 10% ethanol/sesame oil and administered by gavage (oral) each day for seven days beginning on the date of the orchidectomy. […]
# [2] = tested on: ventral prostate weight; assay: Duration of androgenic activity after subcutaneous injection, ventral prostate weight over weeks in orchidectomized immature rats; settings: for area under the curve (AUC, trapezoidal rule) of ventral prostate weight: 12 week period, FIG. 22
# Method: Immature (about 21-day-old) Sprague-Dawley rats were orchidectomized under anesthesia, and randomly assignee to groups of ten animals for each dose level of the active undergoing testing. Each active was administered by subcutaneous injection each day for seven days beginning on the date of the orchidectomy. The animals were sacrificed 24 hours after the last dose, and the ventral prostate and seminal vesicles were excised, cleaned of fat and connective tissue, blotted on moist filter paper and weighed to the nearest 0.1 mg. Regression analysis was performed by conventional methods using a PROPHET data management system. Ventral prostate weight was used as the endpoint because it is the sensitive organ to androgenic stimulation.
# Except for testosterone enanthate, each active was formulated in two different carriers: (1) an aqueous suspension and (2) in sesame oil. Testosterone enanthate was formulated using the sesame oil carrier only, because it exists as a liquid at room temperature and could not therefore be formulated as an aqueous suspension.
# (§2) The carrier used to provide the aqueous suspension was formulated as follows: 1 g benzyl alcohol, 0.5 g sodium carboxylethyl cellulose 50, 0.376 g disodium hydrogen phosphate dihydrate, 1.495 g sodium dihydrogen phosphate dihydrate, with water for injection (WFI) being added to bring volume of the carrier up to 100 ml.
# Each formulation was prepared at a concentration of 0.6 mg/0.2 ml.
# Immature (about 21-day-old) Sprague-Dawley rats were orchidectomized under anesthesia, and randomly assignee to groups of 40 or more. Animals received a single subcutaneous injection of 0.6 mg of each ester in 0.2 ml of an aqueous suspending carrier and/or oily carrier (10% ethanol/90% sesame oil or ethyl oleate) on the date of the orchidectomy. In cases where the ester was not solid at room temperature, 10% ethanol/sesame oil or ethyl oleate was used as the carrier. In this example, the carrier used to provide the aqueous suspension was formulated as follows: 1 g benzyl alcohol, 0.5 g sodium carboxylethyl cellulose 50, 0.376 g disodium hydrogen phosphate dihydrate, 1.495 g sodium dihydrogen phosphate dihydrate, with water for injection (WFI) being added to bring volume of the carrier up to 100 ml.
# Five animals from each group were sacrificed at weekly or biweekly intervals, and the ventral prostate and seminal vesicles were excised, cleaned of fat and connective tissue, blotted on moist filter paper and weighed to the nearest 0.1 mg.
# Ventral prostate weight was used as the endpoint because it is the sensitive organ to androgenic stimulation. Regression analysis was performed by conventional methods using the PROPHET data management system previously identified.
# Immature (about 21-day-old) Sprague-Dawley rats were orchidectomized under anesthesia, and randomly assignee to groups of 40 or more. Animals received a single subcutaneous injection of 0.6 mg of the undecanoate in 0.2 ml of an aqueous suspending carrier and/or oily carrier (10% ethanol/90% sesame oil containing 5 mg/ml chlorobutanol as a preservative, or ethyloleate) on the date of the orchidectomy. The enanthate ester was formulated using the 10% ethanol/sesame oil or ethyloleate carrier as a first standard, with the 10% ethanol/sesame oil carrier used as a second standard.
# as §2, with “In this example, the” for “The”
# Immature (about 21-day-old) Sprague-Dawley rats were orchidectomized under anesthesia, and randomly assignee to groups of 40 or more. […] The enanthate ester was formulated using the 10% ethanol/sesame oil or ethyloleate carrier as a first standard, with the 10% ethanol/sesame oil carrier used as a second standard.
# [3] = tested on: ventral prostate weight; assay: Subcutaneous androgenic potency, ventral prostate weight assay in orchidectomized immature rats (injection daily for seven days); settings: ventral prostate weight assay following subcutaneous administration; alcohol of G = 1.0 (assigned); value is for the free alcohol of the listed ester
# Method: Immature (about 21-day-old) Sprague-Dawley rats were orchidectomized under anesthesia, and randomly assignee to groups of ten animals for each dose level of the active undergoing testing. Each active was dissolved in 10% ethanol/sesame oil and administered by gavage (oral) or subcutaneous injection each day for seven days beginning on the date of the orchidectomy. The animals were sacrificed 24 hours after the last dose, and the ventral prostate and seminal vesicles were excised, cleaned of fat and connective tissue, blotted on moist filter paper and weighed to the nearest 0.1 mg. Regression analysis was performed by conventional methods using a PROPHET data management system. Ventral prostate weight was used as the endpoint because it is the sensitive organ to androgenic stimulation.
# as §1, with “subcutaneous injection” for “gavage (oral)”, “Bid. Med.” for “Biol. Med”
# Immature (about 22-day-old) Sprague-Dawley male rats were orchidectomized under anesthesia, and randomly assignee to groups of ten animals for each dose level of the active undergoing testing. […] Illumination was controlled for 14 hour periods of light and 10 hours of darkness.
# Each active was administered by subcutaneous injection of 0.6 mg of test material in aqueous suspending vehicle (ASV) and/or an oily vehicle (10% ethanol/sesame oil) on the day of surgery. Testosterone enanthate in sesame oil was used as a standard. The ventral prostate and seminal vesicles were excised, cleaned of fat and connective tissue, blotted on moist filter paper and weighed to the nearest 0.1 mg. Regression analysis was performed by conventional methods using a PROPHET data management system. Ventral prostate weight was used as the endpoint because it is the sensitive organ to androgenic stimulation.
Structure (SMILES),oral activity relative to methyltestosterone (potency ratio) [1],Androgenic Potency (activity of corresponding alcohol) [3],also measured
CCCCCCCCCCC(=O)O[C@H]1CC=C2[C@H]3[C@H]([C@@H](C)C[C@@]21C)[C@H]1CCC(=O)C=C1C[C@H]3C,at least about twice,,
"C[C@@H]1CC2=CC(=O)CC[C@@H]2[C@@H]2[C@@H]1C1=CC[C@H](O)[C@@]1(C)C[C@@H]2C [Compound III, 7α,11β-dimethyl-17β-hydroxyestra-4,14-dien-3-one]",~1.96,,
"CCCCC1CCC(C(=O)O[C@H]2CC=C3[C@H]4[C@H]([C@@H](C)C[C@@]32C)[C@H]2CCC(=O)C=C2C[C@H]4C)CC1 (stereo partly drawn) [Compound V, 7α,11β-dimethyl-17β-hydroxyestra-4,14-dien-3-one 17β-4-n-butylcyclohexanecarboxylate]",,,"oral androgenic activity, times as potent as methyltestosterone [1]: about six to about eighteen times; ventral prostate weight over time after single subcutaneous injection (in words) ([2]; 0.6 mg in 0.2 ml aqueous vehicle): most dramatic increases and maintenance of ventral prostate weight; AUC of ventral prostate weight, times greater than for testosterone enanthate in oily carrier ([2]; active in aqueous vehicle versus testosterone enanthate in sesame oil/oily carrier, single subcutaneous 0.6 mg): about 3 times; area under the curve (AUC, trapezoidal rule) of ventral prostate weight ([2]; single subcutaneous 0.6 mg in aqueous vehicle): 1521 mg-weeks"
"CCCC[C@H]1CC[C@H](C(=O)O[C@H]2CC=C3[C@H]4[C@H](CC[C@@]32C)[C@H]2CCC(=O)C=C2C[C@H]4C)CC1 [CDB-4327A, 7α-Methyl-14-dehydro-19-nortestosterone-17β-bucyclate, reference compound]",,,"ventral prostate weight over time after single subcutaneous injection (in words) ([2]; 0.6 mg in 0.2 ml oily carrier, up to 20 weeks, FIG. 9): surprising stimulation of ventral prostate size over the entire 20-week observation period"
CCCCCCCCCCC(=O)O[C@H]1CC[C@H]2[C@H]3[C@H]([C@@H](C)C[C@]12C)[C@H]1CCC(=O)C=C1C[C@H]3C,about twice,,
"CCCC[C@H]1CC[C@H](C(=O)O[C@H]2CC[C@H]3[C@H]4[C@H](CC[C@]23C)[C@H]2CCC(=O)C[C@@H]2C[C@H]4C)CC1 [B, 7α-Methyl-5α-dihydro-19-nortestosterone-17β-bucyclate]",,1.2,
"CCCCCCC(=O)O[C@H]1CC[C@H]2[C@@H]3CCC4=CC(=O)CC[C@]4(C)[C@H]3CC[C@]12C [testosterone enanthate, reference compound]",,,"area under the curve (AUC, trapezoidal rule) of ventral prostate weight ([2]; single subcutaneous 0.6 mg in oily carrier): 513 mg-weeks"
"CCCCCCCCCCC(=O)O[C@H]1CC=C2[C@H]3[C@H]([C@@H](C)C[C@@]21C)[C@H]1CCC(=O)C=C1C[C@H]3C [Compound IV, 7α,11β-dimethyl-17β-hydroxyestra-4,14-dien-3-one 17-undecanoate]",,,"oral androgenic activity, times as potent as methyltestosterone [1]: about two to about nine times; duration of activity on parenteral administration (summary in words) ([2]; parenteral administration, relative to other actives): not long-acting"
"CCCC[C@H]1CC[C@H](C(=O)O[C@H]2CC[C@H]3[C@H]4[C@H](CC[C@]23C)[C@H]2CCC(=O)C=C2C[C@H]4C)CC1 [A, 7α-Methyl-19-nortestosterone-17β-bucyclate]",,8.1^3,
CCCCC1CCC(C(=O)O[C@H]2CC=C3[C@H]4[C@H]([C@@H](C)C[C@@]32C)[C@H]2CCC(=O)C=C2C[C@H]4C)CC1 (stereo partly shown),at least about six times,,
"CCCCC1CCC(C(=O)OC2CCCC3C4C(C)CC5=CC(=O)CCC5(C)C4CCC23C)CC1 [D, 7α-Methyl-D-homo-testosterone-17β-bucyclate]",,36.4–61.7^3,
"CCCC[C@H]1CC[C@H](C(=O)O[C@H]2CC=C3[C@@H]4[C@H](C)CC5=CC(=O)CC[C@]5(C)[C@H]4CC[C@@]32C)CC1 [C, 7α-Methyl-14-dehydro-testosterone-17β-bucyclate]",,61.1,
